Assay results published in patent US20230364121A1 (priority 2020, published 2023).
Several values for one entry are separate records, joined by “and”; a condition that tells them apart may be missing. Equal entries are not always repeated.

Legend:
[1] = target: T1, SARS-CoV-2 ExoN (nsp14/nsp10) (Severe acute respiratory syndrome coronavirus 2, UniProt P0DTD1); format: biochemical
T1 construct: 50 nM nsp14/nsp10 (1:5) were added for time-course reactions

SARS-CoV-2 viral genome = format: cell-based

## C[C@@]1(F)[C@H](O)[C@@H](COP(=O)(O)OP(=O)(O)OP(=O)(O)O)O[C@H]1n1cnc2c(=O)[nH]c(N)nc21 [AT-9010, 2′-fluoro-2′-C-methylguanosine-5′-triphosphate]
[1]
  resistance to ExoN mediated excision relative to an unmodified RNA 3′-end: ~4.8 fold

## CNc1nc(N)nc2c1ncn2[C@@H]1O[C@H](COP(=O)(N[C@@H](C)C(=O)OC(C)C)Oc2ccccc2)[C@@H](O)[C@@]1(C)F (stereo partly shown) [Compound 1A]
SARS-CoV-2 viral genome
  Mean number of mutations, transition A > G: 429
  Mean number of mutations, transition C > T: 24.5
  Mean number of mutations, transition G > A: 6
  Mean number of mutations, transition T > C: 473
  Number of Mutations, transition A > G: 454 and 404
  Number of Mutations, transition C > T: 22 and 27
  Number of Mutations, transition G > A: 7 and 5
  Number of Mutations, transition T > C: 489 and 457
  number of mutations compared to virus control Vc: did not show an increased number of mutations

## CC(C)C[C@H](NC(=O)OCc1ccccc1)C(=O)N[C@@H](C[C@@H]1CCNC1=O)C(O)S(=O)(=O)O (stereo partly shown) [GC376]
SARS-CoV-2 viral genome
  number of mutations compared to virus control Vc: slight increase of the number of mutations

## CC(C)C[C@H](NC(=O)OCc1ccccc1)C(=O)N[C@@H](CC1CCNC1=O)C(O)S(=O)(=O)[O-].[Na+] (stereo partly shown) [GC 376]
SARS-CoV-2 viral genome
  Mean number of mutations, transition A > G: 465.5
  Mean number of mutations, transition C > T: 62
  Mean number of mutations, transition G > A: 14.5
  Mean number of mutations, transition T > C: 532.5
  Number of Mutations, transition A > G: 545 and 368
  Number of Mutations, transition C > T: 51 and 73
  Number of Mutations, transition T > C: 662 and 403

## CC(C)C(=O)OC[C@H]1O[C@@H](n2ccc(NO)nc2=O)[C@H](O)[C@@H]1O [Molnupiravir, molnupiravir]
SARS-CoV-2 viral genome
  Mean number of mutations, transition A > G: 842
  Mean number of mutations, transition C > T: 592
  Mean number of mutations, transition G > A: 385
  Mean number of mutations, transition T > C: 910.5
  Number of Mutations, transition A > G: 813 and 871
  Number of Mutations, transition C > T: 602 and 582
  Number of Mutations, transition G > A: 385
  Number of Mutations, transition T > C: 932 and 889
  number of mutations compared to virus control Vc: significant increase in the number of mutations

## C[C@@]1(F)[C@H](O)[C@@H](COP(=O)(O)OP(=O)(O)OP(=O)(O)O)O[C@H]1n1ccc(=O)[nH]c1=O [STP, 5′-triphosphate 2′-fluoro-2′-C-methyl uridine]
[1]
  resistance to ExoN mediated excision relative to an unmodified RNA 3′-end: ~1.2 fold
